Assays:
[1] = tested on: HEK293T and HEK293T(KO) cells; assay: Colony area of HEK293T vs HEK293T(KO); type: cell-based, human; conditions: 8 days exposure
Text: 250 HEK293T or HEK293T (KO) cells were counted and seeded in 6-well plates for 8 days in the presence or absence of TH5487 at indicated concentrations. Colonies were directly scanned after removing media and drying colonies. Area of HEK293T or HEK293T(KO) colonies was digitally colour contrasted and then analysed using ImageJ. […]
untreated parental HEK293T. Data are average ±SEM of 4 technical replicates from 2 independent experiments. F. Comparative analysis of the colony area (pixels) for HEK293T or HEK293T(KO) cells exposed for eight days to TH5487 or DMSO. Data are average ±SEM of 4 technical replicates from 2 independent experiments. Statistical significance was determined using Mann Witney test (**, P<0.01, ***, P<0.001 and ****, P<0.0001 , ns, non-significant).
Supplementary Fig. S6: 8 -oxodG levels and cell cycle distribution. A. 8-oxodG accumulation in A3 knockdown cells. The indicated shNT cells were treated with 250 ng/ml doxycycline for 0, 96, or 144 h, and the amount of genomic 8-oxodG was quantified with LC -MS/MS. […] Cells were treated with 10 µM TH5487 or an equivalent volume DMSO for the indicated times, and the cell cycle distribution was determined by flow cytometry. […] A3 shNT (grey), sh2 (blue), and sh3 (red), were treated with 250 ng/ml doxycycline for 48 –120 h, and the cell cycle distribution was determined with flow cytometry. […]

[2] = tested on: Ogg1−/− mouse embryonic fibroblasts; assay: Colony formation assay; type: cell-based; conditions: up to 20 μM
Protocol: The indicated concentrations TH5487 were spotted in 6-well plates using a Tecan D300e digital dispenser. 200–500 cells/well H460, ACHN, Ogg1^−/− mouse embryonic fibroblasts and MRC5 cells were then seeded at 200–500 cells/well and incubated for 7–11 days. Colonies exceeding 50 cells were fixed, stained and enumerated as above.
Figure 3. The OGG1 inhibitor TH5487 is selectively toxic to oncogene-expressing cells and cancer cell lines. (A) Close-up view of ligand TH5487 (green) binding to human OGG1. Important residues in the binding site are marked, hydrogen bond interactions are shown in black dashed line, water (red sphere)-mediated interactions in grey dashed line. (B) Comparison between the binding of ligand TH5487 (green) to human OGG1 (gray) with the structure of TH5675 (pink) bound to mouse OGG1 (yellow, PDB 6G3Y). (C) Viability of BJ-Tert and BJ-Ras cells exposed to the indicated concentrations TH5487 for five days. Data are average ±SD of four technical replicates from two independent experiments. (D) Clonogenic survival of cell lines exposed to TH5487. The cancer cell lines ACHN and H460, and the non-transformed cell lines MRC5 and Ogg1^−/− mouse embryonic fibroblasts (MEF) were incubated for 6–11 days in the presence of the indicated concentrations TH5487, followed by colony enumeration. […]

[3] = tested on: primary blood cells (CD34+ cells, CD34- fraction from cord blood, PBMCs); assay: Resazurin viability of primary blood cells; type: cell-based, human
Protocol: Cells were seeded in 96- or 384-well plates and incubated for 3 days for combination experiments or 5 days for single-drug exposure experiments. Resazurin (R7017, SigmaAldrich) was added to a final concentration of 0.01 mg/ml resazurin and fluorescence was measured at ex530/em590 after incubation for 2, 4 or 6 h. Curves were fitted using XLfit software (IDBS) or Prism 8.0 (Graphpad Software), and EC50 values were determined.
Peripheral blood mononuclear Cells (PBMC) were isolated from peripheral whole blood from controls using Histopaque®-1077 (Sigma-Aldrich, San Luis, MO, USA) following the manufacturer's instructions. Briefly, peripheral blood was collected in heparin and diluted with equal amount of PBS. Next, blood was centrifuged with Histopaque®-1077 at 400 × g for 30 min at room temperature and the PBMC layer was recovered. All steps were processed within 4 h after blood extraction.
Isolation of total CD34+ cells was performed from umbilical cord blood samples (CB) from healthy donors distributed from Centro de Transfusión de la Comunidad de Madrid. All samples were collected under written consent and institutional review board agreement. CD34+ cells was obtained from mononuclear cells were separated by fractionation in Ficoll-hypaque according to manufacturer's recommendations (GE Healthcare). […]

Question: How did the “Colony area, HEK293T compared to HEK293T (KO)” value [1] turn out when `O=C(Nc1ccc(I)cc1)N1CCC(n2c(=O)[nH]c3c(Br)cccc32)CC1` [TH5487] was run?
Answer: Its value is “significantly reduced”.

Question: What about the Clonogenic potential [2] of the same compound?
Answer: The Clonogenic potential was “unaffected”.

Question: What about the “Tolerance by hematopoietic primary cells” value ([3]; CD34+ cells, resting and activated CD34- cells from umbilical cord blood, healthy donors) of the same compound?
Answer: Its value is “well tolerated”.

Question: What about the EC50 ([3]; primary blood cells from healthy donors, activated or not, read-out: EC50, average over primary blood cells) of the same compound?
Answer: The EC50 was 35.1 ± 20 µM.
